Data: paper PMC8701318, “LC-QTOF-MS/MS Based Molecular Networking Approach for the Isolation of α-Glucosidase Inhibitors and Virucidal Agents from Coccinia grandis (L.) Voigt” (Foods, 2021)

Legend:
influenza A virus H1N1 = assay: Virucidal activity, ASTM E1053-20 method; assay type: cell-based; conditions: for Virucidal Activity Log Reduction: 10 min exposure
α-glucosidase = tested on: α-glucosidase; design: method as in PMID 24125526; conditions: isolated from leaves of Morus atropurpurea; cited from earlier work
hepatitis C virus = tested on: hepatitis C virus; design: method as in PMID 28638096; conditions: cited from earlier work
[1] = Cytotoxicity in MDCK cells by the MTT assay; conditions: dog
[2] = biological target: α-Glucosidase enzyme (Saccharomyces cerevisiae); assay: In-vitro α-glucosidase inhibitory assay (p-NPG substrate); conditions: read-out: α-Glucosidase Inhibitory Activity, IC50; mean ± s.d. of a triplicate experiment
Method: The α-glucosidase assay was performed as described by Liu et al. [21] with slight modification. The reaction mixture consisting of 50 µL of potassium phosphate buffer (PBS, 0.1 M, pH 6.8) and 20 µL of α-glucosidase (0.5 U/mL) was pre-incubated with 20 µL of the test sample at 37 °C for 15 min in a 96-well plate. The mixture was added 20 µL p-NPG (1 mM) and incubated again at 37 °C for 15 min. A total of 50 µL of Na2CO3 (0.2 M) was added to terminate the enzymatic activity. The absorbance value of each well was measured immediately using a microplate reader at 405 nm. […] All glycosides were dissolved in 50% DMSO, while a crude extract was dissolved in 100% DMSO. The experiment was performed in triplicate. The enzyme inhibition rate was calculated as follows:(1) [1−(ODsample−ODsample blank)/(ODcontrol−ODblank)] × 100 where ODsample represents the absorbance of PBS + enzyme + sample + p-NPG; ODsample blank represents the absorbance of PBS + sample; ODcontrol represents the absorbance of PBS + enzyme + solvent + p-NPG; ODblank represents the absorbance of PBS + solvent. The inhibitory activity is expressed as IC50 (half minimal inhibitory concentration) value. Data were normalized, and the IC50 values were calculated using GraphPad Prism 9.2.0.

[3] = tested on: dengue virus serine protease; design: method as in PMID 32107969; conditions: cited from earlier work
[4] = design: method as in earlier work; conditions: isolated from cottonseeds; cited from earlier work
[5] = tested on: hippocampal neural progenitor cells; design: method as in PMID 19326568; conditions: possibly via the 5-HT1A receptor; cited from earlier work
[6] = mice model; cited from earlier work

C[C@@H]1O[C@@H](OC[C@H]2O[C@@H](Oc3c(-c4ccc(O)c(O)c4)oc4cc(O)cc(O)c4c3=O)[C@H](O)[C@@H](O)[C@@H]2O)[C@H](O)[C@H](O)[C@H]1O [Compound 1, rutin]
Virucidal Activity Log Reduction (influenza A virus H1N1; 3.9 µg/mL): 1.20 ± 0.025 Log
Virucidal Activity Log Reduction (influenza A virus H1N1; 7.8 µg/mL): 1.32 ± 0.032 Log
Virucidal Activity Log Reduction (influenza A virus H1N1; 15.6 µg/mL): 1.34 ± 0.044 Log
Virucidal Activity Log Reduction (influenza A virus H1N1; 31.3 µg/mL): 1.34 ± 0.030 Log
Virucidal Activity Log Reduction (influenza A virus H1N1; 62.5 µg/mL): 1.52 ± 0.045 Log
Virucidal Activity Log Reduction (influenza A virus H1N1; 125.0 µg/mL): 1.80 ± 0.105 Log
α-glucosidase inhibitory activity (in words) (α-glucosidase): α-glucosidase inhibitory activity
hepatitis C virus entry inhibition (in words) (hepatitis C virus): potent hepatitis C virus entry inhibitor
viability at 3.9 µg/mL [1]: 99.3 ± 3.45%
viability at 7.8 µg/mL [1]: 97.8 ± 0.31%
viability at 15.6 µg/mL [1]: 94.7 ± 3.93%
viability at 31.3 µg/mL [1]: 86.5 ± 2.16%
viability at 62.5 µg/mL [1]: 83.8 ± 2.02%
viability at 125 µg/mL [1]: 77.2 ± 1.28%
IC50 [2]: 243 ± 5.29 µM

C[C@@H]1O[C@@H](OC[C@H]2O[C@@H](Oc3c(-c4ccc(O)cc4)oc4cc(O)cc(O)c4c3=O)[C@H](O)[C@@H](O)[C@@H]2O)[C@H](O)[C@H](O)[C@H]1O [Compound 2, kaempferol 3-O-rutinoside]
Virucidal Activity Log Reduction (influenza A virus H1N1; 3.9 µg/mL): 1.66 ± 0.071 Log
Virucidal Activity Log Reduction (influenza A virus H1N1; 7.8 µg/mL): 1.65 ± 0.084 Log
Virucidal Activity Log Reduction (influenza A virus H1N1; 15.6 µg/mL): 1.66 ± 0.071 Log
Virucidal Activity Log Reduction (influenza A virus H1N1; 31.3 µg/mL): 1.68 ± 0.046 Log
Virucidal Activity Log Reduction (influenza A virus H1N1; 62.5 µg/mL): 1.82 ± 0.091 Log
Virucidal Activity Log Reduction (influenza A virus H1N1; 125.0 µg/mL): 1.95 ± 0.124 Log
α-glucosidase inhibitory activity (in words) (α-glucosidase): α-glucosidase inhibitory activity
inhibition of dengue virus serine protease (in words) [3]: strong inhibition
viability at 3.9 µg/mL [1]: 98.1 ± 1.34%
viability at 7.8 µg/mL [1]: 96.3 ± 5.13%
viability at 15.6 µg/mL [1]: 92.3 ± 1.95%
viability at 31.3 µg/mL [1]: 88.5 ± 2.67%
viability at 62.5 µg/mL [1]: 86.5 ± 3.82%
viability at 125 µg/mL [1]: 78 ± 1.75%
IC50 [2]: 236 ± 27.7 µM

C[C@@H]1O[C@@H](OC[C@H]2O[C@@H](Oc3c(-c4ccc(O)cc4)oc4cc(O)cc(O)c4c3=O)[C@H](O)[C@@H](O)[C@H]2O)[C@H](O)[C@H](O)[C@H]1O [Compound 3, kaempferol 3-O-alpha-L-rhamnopyranosyl-(1→6)-beta-D-galactopyranoside]
Virucidal Activity Log Reduction (influenza A virus H1N1; 3.9 µg/mL): 1.63 ± 0.069 Log
Virucidal Activity Log Reduction (influenza A virus H1N1; 7.8 µg/mL): 1.66 ± 0.071 Log
Virucidal Activity Log Reduction (influenza A virus H1N1; 15.6 µg/mL): 1.91 ± 0.062 Log
Virucidal Activity Log Reduction (influenza A virus H1N1; 31.3 µg/mL): 1.95 ± 0.124 Log
Virucidal Activity Log Reduction (influenza A virus H1N1; 62.5 µg/mL): 1.91 ± 0.062 Log
Virucidal Activity Log Reduction (influenza A virus H1N1; 125.0 µg/mL): 1.98 ± 0.088 Log
reduction of virus (influenza A virus H1N1; 31.3 and 15.6 µg/mL): 99%
virucidal Log reduction (influenza A virus H1N1; 31.3 and 15.6 µg/mL): around 1.9 Log
viability at 3.9 µg/mL [1]: 95.6 ± 6.25%
viability at 7.8 µg/mL [1]: 92.8 ± 4.84%
viability at 15.6 µg/mL [1]: 89.7 ± 0.82%
viability at 31.3 µg/mL [1]: 88.7 ± 0.21%
viability at 62.5 µg/mL [1]: 83.6 ± 0.74%
viability at 125 µg/mL [1]: 73.3 ± 0.9%
IC50 [2]: 195 ± 18.1 µM

C[C@@H]1O[C@@H](OC[C@H]2O[C@@H](Oc3c(-c4ccc(O)c(O)c4)oc4cc(O)cc(O)c4c3=O)[C@H](O[C@@H]3OCC(O)(CO)[C@H]3O)[C@@H](O)[C@@H]2O)[C@H](O)[C@H](O)[C@H]1O (stereo partly drawn) [Compound 5, quercetin 3-O-β-D-apiofuranosyl-(1→2)-[α-L-rhamnopyranosyl-(1→6)]-β-D-glucopyranoside]
Virucidal Activity Log Reduction (influenza A virus H1N1; 15.6 µg/mL): 1.87 ± 0.072 Log
Virucidal Activity Log Reduction (influenza A virus H1N1; 31.3 µg/mL): 1.84 ± 0.108 Log
Virucidal Activity Log Reduction (influenza A virus H1N1; 62.5 µg/mL): 1.90 ± 0.062 Log
Virucidal Activity Log Reduction (influenza A virus H1N1; 125.0 µg/mL): 1.97 ± 0.088 Log
Virucidal Activity Log Reduction (influenza A virus H1N1; 250.0 µg/mL): 2.01 ± 0.239 Log
Virucidal Activity Log Reduction (influenza A virus H1N1; 500.0 µg/mL): 2.11 ± 0.198 Log
reduction of virus (influenza A virus H1N1; 500.0 and 250.0 µg/mL): 99%
virucidal Log reduction (influenza A virus H1N1; 500.0 and 250.0 µg/mL): 1.93–2.41 Log
antidepressant and cytoprotective effects (in words) [4]: antidepressant and cytoprotective effects
proliferation of hippocampal neural progenitor cells (in words) [5]: could enhance the proliferation
absorption and tissue distribution (in words) [6]: could be absorbed and distributed into tissues
viability at 15.6 µg/mL [1]: 95.8 ± 4.22%
viability at 31.3 µg/mL [1]: 94.1 ± 1.85%
viability at 62.5 µg/mL [1]: 90 ± 3.08%
viability at 125 µg/mL [1]: 85.8 ± 2.87%
viability at 250 µg/mL [1]: 83.7 ± 1.2%
viability at 500 µg/mL [1]: 82.9 ± 2.06%
IC50 [2]: 431 ± 17.6 µM

C[C@@H]1O[C@@H](OC[C@H]2O[C@@H](Oc3c(-c4ccc(O)cc4)oc4cc(O)cc(O)c4c3=O)[C@H](O[C@@H]3OCC(O)(CO)[C@H]3O)[C@@H](O)[C@@H]2O)[C@H](O)[C@H](O)[C@H]1O (stereo partly drawn) [Compound 6, kaempferol 3-O-β-D-apiofuranosyl-(1→2)-[α-L-rhamnopyranosyl-(1→6)]-β-D-glucopyranoside]
Virucidal Activity Log Reduction (influenza A virus H1N1; 15.6 µg/mL): 1.93 ± 0.124 Log
Virucidal Activity Log Reduction (influenza A virus H1N1; 31.3 µg/mL): 1.93 ± 0.124 Log
Virucidal Activity Log Reduction (influenza A virus H1N1; 62.5 µg/mL): 1.93 ± 0.124 Log
Virucidal Activity Log Reduction (influenza A virus H1N1; 125.0 µg/mL): 1.93 ± 0.124 Log
Virucidal Activity Log Reduction (influenza A virus H1N1; 250.0 µg/mL): 1.93 ± 0.124 Log
Virucidal Activity Log Reduction (influenza A virus H1N1; 500.0 µg/mL): 1.97 ± 0.042 Log
reduction of virus (influenza A virus H1N1; 500.0 and 250.0 µg/mL): 99%
virucidal Log reduction (influenza A virus H1N1; 500.0 and 250.0 µg/mL): 1.93–2.41 Log
viability at 15.6 µg/mL [1]: 97 ± 2.99%
viability at 31.3 µg/mL [1]: 95.7 ± 1.63%
viability at 62.5 µg/mL [1]: 93.7 ± 4.87%
viability at 125 µg/mL [1]: 89.5 ± 0.83%
viability at 250 µg/mL [1]: 88.6 ± 0.43%
viability at 500 µg/mL [1]: 86.4 ± 2.06%
IC50 [2]: 456 ± 26 µM

C[C@@H]1O[C@@H](OC[C@H]2O[C@@H](Oc3c(-c4ccc(O)cc4)oc4cc(O)cc(O)c4c3=O)[C@H](O[C@@H]3OCC(O)(CO)[C@H]3O)[C@@H](O)[C@H]2O)[C@H](O)[C@H](O)[C@H]1O (stereo partly drawn) [Compound 7, kaempferol 3-O-β-D-apiofuranosyl-(1→2)-[α-L-rhamnopyranosyl-(1→6)]-β-D-galactopyranoside]
IC50 [2]: 432 ± 18.9 µM
